In the supplement of paper PMC10307832:

Columns and labels:
Test in all cases: relative viability (nuclei count vs DMSO), 5 days (fraction); higher = more cells survive
[1] = compound: C=C(c1ccc(C(=O)O)cc1)c1cc2c(cc1C)C(C)(C)CCC2(C)C [Bexarotene] + CC(C)C[C@H](NC(=O)[C@H](Cc1ccccc1)NC(=O)c1cnccn1)B(O)O [Bortezomib] (partner 0.002 µM)
How it was run: (§1)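 Lung cancer cell lines in 1536-well plates were dosed by pin tool the day after seeding, either with one drug alone or with a fixed anchor-drug dose plus five library-drug doses (not always all listed) in √10 steps. After 5 days, cells were fixed and their nuclei stained in one step (final 0.05% Triton X-100, 1% formaldehyde, 1 ug/ml Hoechst), then counted on 4× images. Relative viability is the nuclei count in treated wells divided by that in vehicle wells. Values are medians of duplicate plates.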

[2] = compound: C=C(c1ccc(C(=O)O)cc1)c1cc2c(cc1C)C(C)(C)CCC2(C)C [Bexarotene] + NC(=O)Nc1cc(-c2cccc(F)c2)sc1C(=O)N[C@H]1CCCNC1 [AZD7762] (partner 0.2 µM)
How it was run: as §1

[3] = compound: C=C(c1ccc(C(=O)O)cc1)c1cc2c(cc1C)C(C)(C)CCC2(C)C [Bexarotene] + Cc1cc(Nc2cc(N3CCN(C)CC3)nc(Sc3ccc(NC(=O)C4CC4)cc3)n2)n[nH]1 [Tozasertib] (partner 0.1 µM)
How it was run: as §1

[4] = compound: C=C(c1ccc(C(=O)O)cc1)c1cc2c(cc1C)C(C)(C)CCC2(C)C [Bexarotene] + Nc1ncn([C@H]2C[C@H](O)[C@@H](CO)O2)c(=O)n1 [Decitabine] (partner 2 µM)
How it was run: as §1

| Cell Line | relative viability ([1]; first compound 0.08 µM) | relative viability ([1]; first compound 0.253 µM) | relative viability ([1]; first compound 0.8 µM) | relative viability ([1]; first compound 2.53 µM) | relative viability ([1]; first compound 8 µM) | relative viability ([2]; first compound 0.08 µM) | relative viability ([2]; first compound 0.253 µM) | relative viability ([2]; first compound 0.8 µM) | relative viability ([2]; first compound 2.53 µM) | relative viability ([2]; first compound 8 µM) | relative viability ([3]; first compound 0.08 µM) | relative viability ([3]; first compound 0.253 µM) | relative viability ([3]; first compound 0.8 µM) | relative viability ([3]; first compound 2.53 µM) | relative viability ([3]; first compound 8 µM) | relative viability ([4]; first compound 0.08 µM) | relative viability ([4]; first compound 0.253 µM) | relative viability ([4]; first compound 0.8 µM) | relative viability ([4]; first compound 2.53 µM) | relative viability ([4]; first compound 8 µM) |
| --- | --- | --- | --- | --- | --- | --- | --- | --- | --- | --- | --- | --- | --- | --- | --- | --- | --- | --- | --- | --- |
| HCC-827 | 0.994 | 1.11 | 0.992 | 0.989 | 1 | 0.227 | 0.213 | 0.405 | 0.196 | 0.36 | 0.444 | 0.395 | 0.433 | 0.402 | 0.366 | 0.396 | 0.311 | 0.33 | 0.298 | 0.335 |
| ChaGo-K-1 | 1.04 | 1.03 | 1.05 |  | 1.06 | 0.934 | 0.828 | 0.813 | 0.832 | 0.873 | 0.259 | 0.234 | 0.264 | 0.223 | 0.223 | 0.57 | 0.512 | 0.509 | 0.489 | 0.497 |
| EMC-BAC-2 | 1.24 | 1.03 | 0.97 | 1.05 | 1.03 | 1.17 | 1.09 | 1.06 |  | 1.08 | 0.311 | 0.315 | 0.274 | 0.277 | 0.283 | 1.1 | 0.948 | 0.924 |  | 0.943 |
| NCI-H23 | 1.1 | 1.03 | 1.02 | 0.9 | 0.962 | 0.297 | 0.239 | 0.231 | 0.261 | 0.196 | 0.383 | 0.619 | 0.365 | 0.287 | 0.333 | 0.351 | 0.322 | 0.346 | 0.298 | 0.329 |
| RERF-LC-KJ | 1.17 | 1.12 | 1.03 | 1.06 | 1.17 | 0.97 | 0.918 | 0.873 | 1.03 | 0.849 | 0.459 | 0.585 | 0.415 | 0.467 | 0.542 | 0.692 | 0.656 | 0.682 | 0.7 | 0.739 |
| LC-2-ad | 0.936 | 1.16 | 1.09 | 0.936 | 0.985 | 0.87 | 0.907 | 0.875 | 0.867 | 0.928 | 0.438 | 0.503 | 0.408 | 0.41 | 0.434 | 0.805 | 0.85 | 0.853 | 0.772 | 0.813 |
| HCC-15 | 1.06 | 1.13 | 1.05 | 0.959 | 1.01 | 1.23 | 1.17 | 1.27 | 1.1 | 1.44 | 0.357 | 0.531 | 0.415 | 0.44 | 0.34 | 0.762 | 0.72 | 0.611 | 0.588 | 0.568 |
| NCI-H2405 | 1.07 | 0.945 | 0.836 | 0.896 | 0.92 | 0.887 | 0.681 | 0.711 | 0.761 | 0.801 | 0.786 | 0.752 | 0.54 | 0.759 | 0.715 | 0.887 | 0.729 | 0.653 | 0.711 | 0.775 |
| LXF-289 | 1.15 | 1.08 | 1.14 | 1.09 | 1.16 | 1.21 | 1.34 | 1.32 | 1.37 | 1.48 | 0.166 | 0.196 | 0.213 | 0.137 | 0.141 | 0.381 | 0.3 | 0.293 | 0.313 | 0.323 |
| NCI-H1755 | 1.02 | 1.03 | 1.02 | 1 | 0.957 | 0.536 | 0.6 | 0.439 | 0.569 | 0.54 | 0.624 | 0.607 | 0.637 | 0.638 | 0.622 | 0.783 | 0.743 | 0.783 | 0.778 | 0.75 |
| NCI-H1437 | 0.528 | 0.621 | 0.611 | 0.546 | 0.49 | 1.2 | 1.14 | 1.19 | 1.14 | 1.15 | 0.382 | 0.395 | 0.396 | 0.421 | 0.382 | 0.592 | 0.581 | 0.556 | 0.564 | 0.51 |
| NCI-H2085 | 1.04 | 0.918 | 0.929 | 0.946 | 0.939 | 0.868 | 0.92 | 0.803 | 0.789 | 0.815 | 0.865 | 0.834 | 0.728 | 0.771 | 0.767 | 0.539 | 0.545 | 0.512 | 0.487 | 0.536 |
| H3255 | 0.733 | 0.919 | 0.784 | 0.65 | 0.856 | 0.948 | 0.941 | 0.975 | 0.851 | 1.05 | 0.696 | 0.612 | 0.578 | 0.731 | 0.618 | 0.923 | 0.695 | 0.587 | 0.507 | 0.562 |
| NCI-H650 | 0.898 | 1.08 | 0.847 | 0.624 | 0.726 | 1.13 | 0.986 | 1.17 | 0.709 | 1.05 | 0.747 | 0.724 | 0.721 | 0.789 | 0.687 | 0.284 | 0.263 | 0.328 | 0.301 | 0.309 |
| LCLC-103H | 1.07 | 1.03 | 0.863 | 1.11 | 1.23 | 0.807 | 0.78 | 0.64 | 0.796 | 0.842 | 0.531 | 0.452 | 0.428 | 0.48 | 0.43 | 0.811 | 0.701 | 0.689 | 0.795 | 0.742 |
| LOU-NH91 | 0.544 | 0.458 | 0.488 | 0.458 | 0.439 | 0.85 | 0.766 | 0.759 | 0.741 | 0.712 | 0.643 | 0.624 | 0.665 | 0.637 | 0.598 | 0.854 | 0.841 | 0.833 | 0.773 | 0.717 |
| NCI-H3122 | 1.09 | 1.05 | 1.09 | 1.15 | 1.13 | 1.05 | 1 | 0.944 | 0.968 | 1.13 | 0.431 | 0.492 | 0.425 | 0.471 | 0.476 | 0.521 | 0.385 | 0.416 | 0.415 | 0.365 |
| PC-3 [JPC-3] | 0.9 | 0.843 | 0.68 | 0.858 | 0.771 | 0.958 | 0.705 | 0.785 | 0.651 | 0.709 | 0.905 | 0.889 | 0.758 | 0.862 | 0.755 | 0.874 | 0.865 | 0.88 | 0.745 | 0.781 |
| NCI-H1651 | 1.14 | 0.843 | 0.965 | 0.944 | 1.04 | 0.544 | 0.491 | 0.525 | 0.454 | 0.549 | 0.929 | 0.64 | 0.741 | 0.594 | 0.791 | 0.77 | 0.548 | 0.66 | 0.638 | 0.618 |
| NCI-H2087 | 0.877 | 0.972 | 0.979 | 0.753 | 0.725 | 1.33 | 1.3 | 1.2 | 1.35 | 1.16 | 0.254 | 0.314 | 0.211 | 0.179 | 0.258 | 0.303 | 0.277 | 0.242 | 0.227 | 0.215 |
